Experimental data reported in ChEMBL document CHEMBL1201862, “PubChem BioAssay data set” (2004).
Activity calls are given as the source filed them.

Legend:
[1] = target: T1, Delta-type opioid receptor (Homo sapiens, UniProt P41143); assay: DOR agonists, SAR follow-up, image-based (AID 2370); assay type: functional
[2] = target: T2, Kappa-type opioid receptor (Homo sapiens, UniProt P41145); assay: KOR antagonists by imaging, SAR follow-up, image-based (AID 2348); assay type: functional
[3] = target: T3, Mu-type opioid receptor (Homo sapiens, UniProt P35372); assay: MOR antagonists, SAR follow-up, image-based (AID 2420); assay type: functional;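 also: compounds added before stimulation of receptor with agonist DAMGO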
[4] = target: T3, Mu-type opioid receptor; assay: MOR agonists by imaging, SAR follow-up, image-based (AID 2352); assay type: functional
[5] = target: T2, Kappa-type opioid receptor; assay: kappa opioid receptor blockers, cell-based, luminescence, beta-arrestin, SAR follow-up (AID 2285); assay type: functional
[6] = target: T2, Kappa-type opioid receptor; assay: KOR agonist analogs, imaging readout, SAR follow-up, image-based (AID 2359); assay type: functional
[7] = target: T1, Delta-type opioid receptor; assay: DOR antagonists, SAR follow-up, image-based (AID 2357); assay type: functional
[8] = target: T4, Runt-related transcription factor 1/Core-binding factor subunit beta (Homo sapiens, UniProt Q01196+Q13951); assay: inhibitors of RUNX1 Runt–CBFb-SMMHC binding, primary screen, biochemical, FRET, Cerulean-Runt, Venus-CBFb-SMMHC, uHTS (AID 1434); assay type: protein assay;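 also: partner is the CBFb-SMMHC leukemia fusion protein rather than wild-type CBFb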
[9] = target: T5, Bcl-2-like protein 10 (Homo sapiens, UniProt Q9HD36); assay: displacers of TR3 peptide from Bcl-B, primary screen, selectivity assay for Bfl-1 inhibitor project, biochemical, fluorescence polarization, FITC-TR3 peptide (AID 748);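 also: fluorescence polarization from a fluorescein-labelled TR3 peptide binding purified Bcl-B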
T5 sequence (Q9HD36 whole entry): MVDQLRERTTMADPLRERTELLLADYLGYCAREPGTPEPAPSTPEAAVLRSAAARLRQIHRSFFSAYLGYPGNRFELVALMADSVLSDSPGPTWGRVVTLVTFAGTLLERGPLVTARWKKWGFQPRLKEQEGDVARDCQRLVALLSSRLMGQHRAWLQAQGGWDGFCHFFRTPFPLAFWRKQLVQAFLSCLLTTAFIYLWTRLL

[10] = target: T4, Runt-related transcription factor 1/Core-binding factor subunit beta; assay: inhibitors of RUNX1 Runt–CBFb-SMMHC binding, biochemical, TR-FRET (AID 1438); assay type: protein assay
[11] = target: Glutathione-S-transferase (Schistosoma japonicum, UniProt Q26513); assay: biotin-GST/anti-GST TR-FRET signal inhibitors, dose response, artefact control for Vif-APOBEC3G degradation inhibitor project, biochemical (AID 1117362); assay type: functional
[12] = target: T6, Cannabinoid receptor 2 (Homo sapiens, UniProt P34972); assay: SAR analysis of agonists of the Cannabinoid Receptor 2 using an Image-Based Assay - Set 2. [Related pubchem assays (depositor defined):AID1961, AID1965]; assay type: functional
[13] = target: T7, G-protein coupled receptor 55 (Homo sapiens, UniProt Q9Y2T6); assay: SAR analysis of selective Agonists of GPR55 using an Image-Based Assay. [Related pubchem assays (depositor defined):AID1961, AID1965]; assay type: functional
[14] = target: T7, G-protein coupled receptor 55; assay: GPR55 agonists via beta-arrestin recruitment, primary screen, imaging, U2OS cells, beta-arrestin-GFP redistribution (AID 1961); assay type: functional
[15] = target: T6, Cannabinoid receptor 2; assay: SAR analysis of antagonists of the Cannabinoid Receptor 2 using an Image-Based Assay - Set 2. [Related pubchem assays (depositor defined):AID1961, AID1965]; assay type: functional
[16] = target: Cannabinoid receptor 1 (Homo sapiens, UniProt P21554); assay: SAR analysis of antagonists of the Cannabinoid Receptor 1 using an Image-Based Assay. [Related pubchem assays (depositor defined):AID1961, AID1965]; assay type: functional
[17] = target: T8, Endoribonuclease toxin MazF (Escherichia coli K-12, UniProt P0AE70); assay: fluorescent RNA oligo signal without MazF, dose response, counter-screen for MazEF activator project, biochemical, fluorescence, single-stranded RNase substrate (AID 588502); assay type: functional
T8 sequence (P0AE70 whole entry): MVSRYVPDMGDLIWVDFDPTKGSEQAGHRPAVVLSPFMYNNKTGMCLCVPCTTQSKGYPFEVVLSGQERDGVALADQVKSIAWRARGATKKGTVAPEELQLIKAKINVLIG

[18] = target: T9, Tyrosine-protein phosphatase non-receptor type 7 (Homo sapiens, UniProt P35236); assay type: functional
T9 sequence (P35236 whole entry): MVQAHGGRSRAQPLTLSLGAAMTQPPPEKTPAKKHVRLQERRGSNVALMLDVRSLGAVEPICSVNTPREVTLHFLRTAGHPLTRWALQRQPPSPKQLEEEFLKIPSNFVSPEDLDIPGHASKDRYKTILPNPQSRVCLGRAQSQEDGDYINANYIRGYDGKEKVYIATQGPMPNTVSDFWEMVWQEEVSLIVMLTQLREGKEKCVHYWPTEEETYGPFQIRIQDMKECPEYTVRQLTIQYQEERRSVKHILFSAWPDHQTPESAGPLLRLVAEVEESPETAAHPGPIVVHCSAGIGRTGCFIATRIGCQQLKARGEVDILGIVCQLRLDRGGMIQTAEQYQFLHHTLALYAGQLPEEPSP

[19] = target: T8, Endoribonuclease toxin MazF; assay: MazF toxin RNase activators, dose response, biochemical, fluorescence, single-stranded RNA substrate, uHTS hits (AID 588481); assay type: functional
[20] = target: T10, Tyrosine-protein phosphatase non-receptor type 22 (Homo sapiens, UniProt Q9Y2R2); assay type: functional
T10 sequence (Q9Y2R2 whole entry): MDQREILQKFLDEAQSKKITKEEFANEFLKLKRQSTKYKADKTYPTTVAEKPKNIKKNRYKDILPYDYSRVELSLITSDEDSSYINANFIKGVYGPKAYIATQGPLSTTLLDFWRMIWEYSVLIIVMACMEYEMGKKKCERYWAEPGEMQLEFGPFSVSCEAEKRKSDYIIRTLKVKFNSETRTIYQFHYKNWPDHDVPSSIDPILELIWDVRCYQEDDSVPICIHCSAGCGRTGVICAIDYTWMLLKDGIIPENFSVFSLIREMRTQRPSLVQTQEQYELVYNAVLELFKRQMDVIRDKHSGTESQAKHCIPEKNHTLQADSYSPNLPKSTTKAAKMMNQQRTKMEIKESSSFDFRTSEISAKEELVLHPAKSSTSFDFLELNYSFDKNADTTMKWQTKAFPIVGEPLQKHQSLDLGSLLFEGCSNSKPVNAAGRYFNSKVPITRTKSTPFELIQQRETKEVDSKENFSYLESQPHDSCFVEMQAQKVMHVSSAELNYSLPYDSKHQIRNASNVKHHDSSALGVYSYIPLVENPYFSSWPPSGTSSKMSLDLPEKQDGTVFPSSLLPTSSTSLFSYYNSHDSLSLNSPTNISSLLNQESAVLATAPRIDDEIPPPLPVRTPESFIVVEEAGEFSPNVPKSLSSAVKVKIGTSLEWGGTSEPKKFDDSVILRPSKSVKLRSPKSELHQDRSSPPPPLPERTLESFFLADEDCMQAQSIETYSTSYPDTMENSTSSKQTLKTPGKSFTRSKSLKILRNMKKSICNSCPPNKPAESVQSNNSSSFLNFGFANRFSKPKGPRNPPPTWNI

[21] = target: Troponin, cardiac muscle (Homo sapiens, UniProt P19429+P45379+P63316); assay: Fluorescence-based biochemical high throughput dose response assay for activators of the calcium sensitivity of cardiac Regulated Thin Filaments (RTF). [Related pubchem assays (depositor defined):AID493008, AID493018, AID504382, AID504383]; assay type: protein-complex assay
[22] = target: T10, Tyrosine-protein phosphatase non-receptor type 22; assay type: functional; remark: listed apart in the source
[23] = target: T2, Kappa-type opioid receptor; assay: SAR analysis of small molecule agonists of the kappa opioid receptor via a luminescent beta-arrestin assay - Set 3. [Related pubchem assays (depositor defined):AID1777, AID1785, AID1786, AID1966, AID2133, AID2136, AID2284, AID2500]; assay type: functional
[24] = target: T11, Voltage-gated N-type calcium channel alpha-1B subunit/Amyloid beta A4 precursor protein-binding family A member 1 (Homo sapiens, UniProt Q00975+Q02410); assay type: protein assay
[25] = target: Eukaryotic translation initiation factor 4E (Mus musculus, UniProt P63073); assay: eIF4E–eIF4G protein interaction inhibitors, dose response, biochemical, TR-FRET (AID 855); assay type: functional;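 also: potency for disrupting eIF4E binding to eIF4GI seen as loss of FRET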
[26] = target: T12, Dual specificity protein phosphatase 3 (Homo sapiens, UniProt P51452); assay: VHR1 phosphatase inhibitors, biochemical (AID 1878)
[27] = target: T12, Dual specificity protein phosphatase 3; assay: VHR1 phosphatase inhibitors, primary screen, biochemical, absorbance, uHTS (AID 1654)
[28] = target: T11, Voltage-gated N-type calcium channel alpha-1B subunit/Amyloid beta A4 precursor protein-binding family A member 1; assay type: protein assay; remark: listed apart in the source
[29] = target: T13, Dual specificity protein phosphatase 6 (Rattus norvegicus, UniProt Q64346); assay: MKP-3 phosphatase inhibitors, primary screen, biochemical, rat enzyme, in vitro (AID 425)
T13 sequence (Q64346 whole entry): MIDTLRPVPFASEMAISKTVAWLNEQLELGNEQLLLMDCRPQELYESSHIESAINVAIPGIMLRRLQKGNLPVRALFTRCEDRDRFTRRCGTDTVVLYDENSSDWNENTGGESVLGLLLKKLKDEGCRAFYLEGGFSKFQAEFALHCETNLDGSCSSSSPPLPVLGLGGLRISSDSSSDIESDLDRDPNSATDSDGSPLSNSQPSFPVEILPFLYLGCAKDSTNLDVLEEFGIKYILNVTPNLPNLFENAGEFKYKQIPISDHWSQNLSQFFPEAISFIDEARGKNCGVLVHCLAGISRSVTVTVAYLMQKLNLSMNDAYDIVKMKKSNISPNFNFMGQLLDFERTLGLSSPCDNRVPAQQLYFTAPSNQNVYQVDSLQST

[30] = target: Induced myeloid leukemia cell differentiation protein Mcl-1 (Homo sapiens, UniProt Q07820); assay type: functional
[31] = target: Signal transducer and activator of transcription 3 (Homo sapiens, UniProt P40763); assay: STAT3 inhibitors, late-stage profile, late-stage follow-up, cell-based, STAT1 panel, qPCR, cytotoxicity, panel member STAT3 Inhibition (AID 2078)
[32] = target: Signal transducer and activator of transcription 1-alpha/beta (Homo sapiens, UniProt P42224); assay: STAT3 inhibitors, late-stage profile, late-stage follow-up, cell-based, STAT1 panel, qPCR, cytotoxicity, panel member STAT1 Inhibition (AID 2078)

In the case of `Cc1ccc(C)c(N2CCN(CCCNC(=O)CCn3c(=O)c4cccn4c4cccnc43)CC2)c1`, the EC50 [1] is reported as > 32 µM (inactive), the IC50 [2] is reported as > 32 µM (inactive) and the IC50 [3] is reported as > 32 µM (inactive). The EC50 [4] was > 32 µM (inactive), the IC50 [5] was > 10 µM (inactive) and the EC50 [6] was > 32 µM (inactive). For the same compound, the IC50 [7] was > 32 µM (inactive).
For `CN1CCc2c(sc3c2c(NCc2ccco2)nc2nnnn23)C1`, the IC50 [8] was 80 µM (inactive), the IC50 [9] was 38.8 µM (active) and the IC50 [10] was 56.3 µM (inactive). For the same compound, the IC50 [11] was 31.1 µM (active).
In the case of `CN(C)S(=O)(=O)c1ccc(N2CCCC2)c(C(=O)N2CCN(c3ccc([N+](=O)[O-])cc3)CC2)c1`, the EC50 [12] is reported as > 32 µM (inactive), the EC50 [13] is reported as 0.66 µM (active) and the EC50 [14] is reported as 0.689 µM (active). The IC50 [15] was > 32 µM (inactive) and the IC50 [16] was > 32 µM (inactive).
`Cc1ccc(N=Nc2c(O)n(CN3CCOCC3)c3ccccc23)cc1` was tested, and the EC50 [17] was 50.5 µM (inactive), the IC50 [18] was > 79.4 µM (inactive) and the EC50 [19] was 39.4 µM (inactive). The IC50 [20] was > 79.4 µM (inactive), the EC50 [21] was > 71.5 µM (inactive) and the IC50 [22] was > 79.4 µM (inactive).
With `Cc1ccc2nc(O)c(CN(Cc3ccccc3)C(=O)c3ccccn3)cc2c1` the EC50 [23] was 9.25 µM (active).
With `COc1cc(/C=C2\SC(=O)N(c3ccc(Cl)cc3)C2=O)cc([N+](=O)[O-])c1O` the IC50 [24] was > 56.8 µM (not active), the IC50 [25] was 50 µM (inactive) and the IC50 [26] was 2.3 µM (active). The IC50 [27] was 2.92 µM (active), the IC50 [28] was > 50 µM (inactive) and the IC50 [29] was > 158 µM (not active). The IC50 [30] was 3.07 µM (active).
In the case of `O=C(c1ccccc1)C1CCN(c2ncnc3sc4c(c23)CCCC4)CC1`, the IC50 [31] is reported as > 18.6 µM (inactive) and the IC50 [32] is reported as > 55.7 µM (inactive).
